Our source for the Papp values is ChEMBL document CHEMBL4396902, “Development of a Platform To Enable Efficient Permeability Evaluation of Novel Organo-Peptide Macrocycles” (ACS Med Chem Lett, 2019).

By Papp is commonly meant a coefficient for how fast a substance crosses the barrier.

The series is described as follows: Apparent permeability in dog MDCK2 cells incubated for 3 hrs. The series is classed as ADME, cell-based, Canis lupus familiaris. To be noted: mdck-ii.
Consider `CC[C@H](C)[C@@H]1NC(=O)CNc2ccccc2CCNC(=O)[C@@H]2CCCN2C(=O)[C@H](Cc2ccc(F)cc2)NC(=O)[C@@H](CC(C)C)NC1=O`, for which the Papp is 12.9 ×10⁻⁶ cm/s. Take `CC(C)C[C@H]1NC(=O)[C@@H](C(C)C)NC(=O)CNc2cccc(c2)CCNC(=O)[C@@H]2CCCN2C(=O)[C@H](Cc2ccc(F)cc2)NC1=O`: the apparent permeability coefficient (Papp) was found to be 4 ×10⁻⁶ cm/s. In the case of `CC[C@H](C)[C@@H]1NC(=O)CCCNc2cccc(c2)CNC(=O)[C@@H]2CCCN2C(=O)[C@H](Cc2ccc(F)cc2)NC(=O)[C@H](CC2CCCCC2)NC1=O` it was 2.9 ×10⁻⁶ cm/s; in that of `CC(C)C[C@H]1NC(=O)[C@@H](C(C)C)NC(=O)CNc2ccccc2CCNC(=O)[C@@H]2CCCN2C(=O)[C@H](Cc2ccc(F)cc2)NC1=O`, 5.5 ×10⁻⁶ cm/s; in that of `CC[C@H](C)[C@@H]1NC(=O)CNc2cccc(c2)CCNC(=O)[C@@H]2CCCN2C(=O)[C@@H](Cc2ccccc2)NC(=O)[C@@H](CC(C)C)NC1=O`, 7.6 ×10⁻⁶ cm/s. With `CC[C@H](C)[C@@H]1NC(=O)CNc2cccc(c2)CCNC(=O)[C@@H]2CCCN2C(=O)[C@H](Cc2ccc(F)cc2)NC(=O)[C@@H](CC(C)C)NC1=O`, the Papp stood at 5.7 ×10⁻⁶ cm/s. Regarding `CC[C@H](C)[C@@H]1NC(=O)CNc2cccc(c2)CNC(=O)[C@@H]2CCCN2C(=O)[C@H](Cc2ccc(F)cc2)NC(=O)[C@H](CC2CCCCC2)NC1=O`, the apparent permeability coefficient (Papp) was found to be 3.9 ×10⁻⁶ cm/s. For the compound `CC[C@H](C)[C@@H]1NC(=O)CNc2ccccc2CCNC(=O)[C@@H]2CCCN2C(=O)[C@@H](Cc2ccccc2)NC(=O)[C@@H](CC(C)C)NC1=O`, the Papp is 14.5 ×10⁻⁶ cm/s.
